Measurements: US20120283100A1, “CONTROLLING PLANTHOPPERS” (priority 2011, published 2012)
“And” between values parts separate entries of the source, which are not always exact repeats. Equal entries are not always repeated.

System: brown planthoppers, Nilaparvata lugens
Assay: Field efficacy on brown planthopper in transplanted rice (small-plot trials A-D)
Type: in vivo
Details: Sulfoxaflor 50 g/ha, Chlorpyrifos 500 g/ha, mixture 50 + 500 g/ha; for % Control: Trial A
Method: Applications were made to transplanted rice, Oryza sativa, using standard small-plot efficacy methods. Chemicals were diluted in water and all treatments were applied using a backpack sprayer calibrated to deliver 500 liters of spray per hectare. Experimental plots measured 5 by 10 meters and each treatment was replicated three times in each trial. At the specified intervals after treatment, brown planthoppers, Nilaparvata lugens, were counted in 10 randomly selected hills per plot. Data were transformed to percent control relative to the untreated plots, then subjected to analysis of variance, and means were separated using Tukey's HSD (p=0.1). Expected control was calculated using the method of Colby and compared to observed control. See the Table Section for the results of the Field Trials.

SMILES | % Control (1 DAT, relative to untreated plots) | % Control (3 DAT) | % Control (7 DAT) | % Control (10 DAT) | % Control (15 DAT) | % Control at DAT (Trial B, 1 DAT) | % Control at DAT (Trial B, 3 DAT) | % Control at DAT (Trial B, 7 DAT) | % Control at DAT (Trial B, 10 DAT) | % Control at DAT (Trial B, 15 DAT) | % Control at DAT (Trial C, 1 DAT) | % Control at DAT (Trial C, 3 DAT) | % Control at DAT (Trial C, 7 DAT) | % Control at DAT (Trial C, 10 DAT) | % Control at DAT (Trial C, 15 DAT) | % Control at DAT (Trial D, 1 DAT) | % Control at DAT (Trial D, 7 DAT) | % Control at DAT (Trial D, 10 DAT) | % Control at DAT (Trial D, 15 DAT)
CCOP(=S)(OCC)Oc1nc(Cl)c(Cl)cc1Cl [Chlorpyrifos] | 13.7 bc % and 13.7% | 37.5 b % and 37.5% | 32.4 b % and 32.4% | 7.8 b % and 7.8% | 21.0 b % and 21% | 45.2 ab % and 45.2% | 64.8 b % and 64.8% | 54.0 b % and 54% | 39.8 b % and 39.8% | 57.8 b % and 57.8% | 53.4 ab % and 53.4% | 67.0 b % and 67% | 59.7 b % and 59.7% | 10.5 b % and 10.5% | 37.9 b % and 37.9% | 59.6 c % and 59.6% | 53.8 c % and 53.8% | 18.2 c % and 18.2% | 27.0 c % and 27%
CC(c1ccc(C(F)(F)F)nc1)S(C)(=O)=NC#N (stereo not drawn) [Sulfoxaflor] | – | – | – | 6.8% | – | – | – | – | 48.2% | – | – | – | – | – | – | – | – | – | –
